Values of other authors, collected in patent US5246920A, “Treatment of hyperprolactinemia” (University of South Florida, priority 1992, dated 1993).
Where no end group is shown, it is not given here. [ ]: non-standard residue; d: D form.

Tested on: old rats
Conditions: peptides given individually

Row | Substance | sensitivity of old rats to the individually administered peptides, in words
1 | H[dW]AW[dF]K-NH2 [GHRP-6] | relatively insensitive
2 | GHRH: Natural growth hormone releasing hormone, also known as growth hormone releasing factor (GHRF or GRF) (YADAIFTNSYRKVLGQLSARKLLQDIMSRQQGESNQERGARARL; ends and bridges not checked; UniProt P01286 32-75, looked up) | relatively insensitive
